This is an account of results in US20230374017A1, “COMPOSITIONS AND METHODS FOR ACTIVATING PYRUVATE KINASE” (The Regents of the University of Michigan, priority 2020, published 2023).

The structures appear in SMILES notation.

What is called EC50 is the concentration that produces a half-maximal response.

The target of data set [1] is T1, pyruvate kinase activity, 661W cell line (Mus musculus, UniProt P52480).
T1 construct: endogenous in cells; host or cells: 661W cell line
The data set is described as follows: Pyruvate kinase activity in 661W cell lysates after 2 hours treatment. It is filed as cell-based. The following applies: 661W cells, 2 hours incubation, activity normalized to total protein; for Emax: read-out: Max Activation (cell). How it is done:
Cell culture. For 661W cell line experiments, media was replaced prior to the start of treatment with DMSO or ML-265. Cells were incubated with DMSO or different concentrations of ML-265 for 2 hours. Cells were lysed and homogenized in RIPA Lysis and Extraction Buffer (Catalog number: 89900, Life Technologies Corporation, Grand Island, NY) with protease inhibitors (Complete-Mini, Roche Diagnostics, Indianapolis, IN) and cellular debris was removed by centrifugation at 10,000 rpm for 10 minutes. Ten microliters of the supernatant was used to assess pyruvate kinase activity, and the activity was normalized to total protein content as previously described.

The target of data set [2] is T2, human recombinant PKM2 (Homo sapiens, UniProt P14618).
T2 construct: purchased Sigma SAE0021
T2 sequence (P14618 whole entry): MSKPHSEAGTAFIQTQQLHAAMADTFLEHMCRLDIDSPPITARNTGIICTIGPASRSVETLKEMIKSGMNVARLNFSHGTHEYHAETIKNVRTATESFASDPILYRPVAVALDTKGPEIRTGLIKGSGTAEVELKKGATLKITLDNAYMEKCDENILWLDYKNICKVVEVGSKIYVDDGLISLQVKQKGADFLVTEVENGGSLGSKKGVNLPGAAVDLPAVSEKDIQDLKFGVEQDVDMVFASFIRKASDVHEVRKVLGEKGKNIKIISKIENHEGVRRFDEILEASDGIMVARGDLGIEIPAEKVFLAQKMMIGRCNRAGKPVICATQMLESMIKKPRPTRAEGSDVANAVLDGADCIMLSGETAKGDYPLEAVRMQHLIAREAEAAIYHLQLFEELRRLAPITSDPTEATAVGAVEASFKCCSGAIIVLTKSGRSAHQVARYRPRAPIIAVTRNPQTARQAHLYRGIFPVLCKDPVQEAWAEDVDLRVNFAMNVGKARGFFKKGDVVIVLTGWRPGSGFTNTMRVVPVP
Briefly: Pyruvate kinase activity enzyme assay, recombinant enzyme (LDH-coupled, NADH depletion at 340 nm). The class given is biochemical. The following applies: normalized to DMSO-treated PKM2 activity; for EC50: recombinant PKM2 20 nM; for Emax: recombinant PKM2, read-out: Max Activation. How it is done:
Pyruvate Kinase Activity Enzyme Assay. Recombinant Enzyme. A continuous, enzyme-coupled assay, which uses lactate dehydrogenase (LDH) and measures the depletion of NADH via absorbance at 340 nm was utilized to determine the pyruvate kinase activity. For AC50 measurements (concentration of activator necessary to achieve half-maximal activation) with ML-265, assays were performed in 96-well format using 200 μL/well assay volume with final concentrations of 20 nM human recombinant PKM2 (Sigma, SAE0021), differing concentrations of ML-265, 0.5 mM PEP, 1 mM ADP, 0.2 mM NADH, and 8 U of lactate dehydrogenase (LDH) in an assay buffer of 50 mM Tris-HCl (pH 7.4), 100 mM KCl, and 5 mM MgCl2. The decrease in absorbance at 340 nm was monitored using a SPECTROstar Omega plate reader (BMG LABTECH Inc., Cary, NC, USA). Initial velocities were calculated with the MARS software. Data were normalized to DMSO (dimethyl sulfoxide)-treated PKM2 activity.

Data set [3] deals with photoreceptors / retina. To be noted: cited from earlier work.

T1 sequence (P52480 whole entry): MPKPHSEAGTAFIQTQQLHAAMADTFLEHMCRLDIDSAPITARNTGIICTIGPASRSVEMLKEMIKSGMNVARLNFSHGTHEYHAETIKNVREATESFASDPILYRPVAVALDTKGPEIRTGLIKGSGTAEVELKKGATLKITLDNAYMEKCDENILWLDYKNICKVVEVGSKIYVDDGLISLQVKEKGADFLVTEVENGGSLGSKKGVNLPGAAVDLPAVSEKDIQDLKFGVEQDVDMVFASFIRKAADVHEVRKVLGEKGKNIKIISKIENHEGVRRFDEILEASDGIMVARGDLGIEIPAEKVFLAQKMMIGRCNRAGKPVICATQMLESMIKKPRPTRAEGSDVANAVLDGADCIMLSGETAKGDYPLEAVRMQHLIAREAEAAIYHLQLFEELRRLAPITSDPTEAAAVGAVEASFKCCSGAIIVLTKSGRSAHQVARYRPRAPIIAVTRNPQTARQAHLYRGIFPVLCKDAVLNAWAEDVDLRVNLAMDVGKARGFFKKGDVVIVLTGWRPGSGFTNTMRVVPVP

On to `Cn1c2cc(Oc3cccc(Cl)n3)ccc2c2cnn(Cc3cccc(N)c3)c(=O)c21` [Example 78, 3-(3-aminobenzyl)-7-((6-chloropyridin-2-yl)oxy)-5-methyl-3,5-dihydro-4H-pyridazino[4,5-b]indol-4-one], for which the EC50 in data set [1] turned out to be 47 nM; in data set [2] it was 35 nM. In addition, the results for the Emax in data set [1] and in data set [2] were 247% and 195%, respectively.

On to `Cn1c2cc(Oc3cccc(N)c3)ccc2c2cnn(Cc3cccc(N)c3)c(=O)c21` [Example 80, 3-(3-aminobenzyl)-7-(3-aminophenoxy)-5-methyl-3,5-dihydro-4H-pyridazino[4,5-b]indol-4-one], for which the EC50 in data set [1] turned out to be 235 nM; in data set [2], 45 nM. Further, the Emax in data set [1] came to 325%; in data set [2] it was 286%.

Turning to `Cn1ncc2c3ccc(Oc4cccc(Cl)n4)cc3n(C)c2c1=O` [Example 81, 7-((6-chloropyridin-2-yl)oxy)-3,5-dimethyl-3,5-dihydro-4H-pyridazino[4,5-b]indol-4-one], the EC50 in data set [1] is 259 nM; in data set [2], 49 nM. The Emax in data set [1] is 259%; in data set [2], 336%.

Take `Cn1c2cc(Oc3cccc(F)n3)ccc2c2cnn(Cc3cccc4[nH]ncc34)c(=O)c21` [Example 85, 3-((1H-indazol-4-yl)methyl)-7-((6-fluoropyridin-2-yl)oxy)-5-methyl-3,5-dihydro-4H-pyridazino[4,5-b]indol-4-one]: in data set [1], the EC50 was determined as 76 nM and the Emax came out at 315%. Moreover, in data set [2], the EC50 was 63 nM and the Emax was determined as 330%.

`Cn1c2cc(Oc3cccc(F)n3)ccc2c2cnn(Cc3cc[nH]n3)c(=O)c21` [Example 86, 3-((1H-pyrazol-3-yl)methyl)-7-((6-fluoropyridin-2-yl)oxy)-5-methyl-3,5-dihydro-4H-pyridazino[4,5-b]indol-4-one]: in data set [1], the EC50 was found to be 172 nM and the Emax was found to be 352%. In addition, in data set [2], the EC50 came out at 63 nM and the Emax is 195%.

`COc1cccc(Cn2ncc3c4ccc(Oc5cccc(F)n5)cc4n(C)c3c2=O)c1` [Example 90, 7-((6-fluoropyridin-2-yl)oxy)-3-(3-methoxybenzyl)-5-methyl-3,5-dihydro-4H-pyridazino[4,5-b]indol-4-one]: in data set [1], the EC50 came to 60 nM and the Emax was 202%. Also, in data set [2], the EC50 was 72 nM and the Emax came to 218%.

With `Cn1c2cc([S+](C)[O-])sc2c2cnn(Cc3cccc(N)c3)c(=O)c21` (centres unmarked) [ML-265], the “toxic effects on the retina” value in data set [3] (long-term) was “without any toxic effects on the retina long-term”. For the same molecule, the photoreceptor apoptosis entry in data set [3] (small molecule activation of PKM2, models of outer retinal stress) is given as “circumvents photoreceptor apoptosis”.
